Laboratory results as given in patent US7998938B2, “Cancer treatment by combined inhibition of proteasome and telomerase activities” (Geron Corporation, priority 2005, dated 2011).
Strand notation (5' to 3'): a small letter for the sugar, then the base; units joined by * are phosphorothioate-linked, units joined directly phosphodiester-linked; [ ] holds rarer units or linkages, { } end groups; capitals alone tell only the bases. [NPS] = N3'→P5' thiophosphoramidate internucleoside linkage; [NP] = N3'→P5' phosphoramidate internucleoside linkage; d = 2'-deoxy (DNA)

These compounds were tested on CAG MM cell line (assay: not given). Settings: Group 4, intravenous 0.25 mg/kg; p<0.01.
Assay type: in vivo, NOD/SCID mice
Experimental: The CAG MM cell line (telomere length 2.7 Kb) was transfected with a retroviral vector encoding a triple fusion gene for HSV-TK, firefly luciferase and green fluorescence protein, and whole animal bioluminescence imaging was undertaken in a disseminated NOD/SCID model with extensive spinal cord and bone marrow tumor infiltration. NOD/SCID mice were not irradiated with gamma ray before cell implantation. […] Bortezomib was administered intravenously at a dose of 0.25 mg/kg (Table 1).
The results are discussed in Section IVA above, with reference to FIGS. 4A-B.

**Q.** CC(C)C[C@H](NC(=O)[C@H](Cc1ccccc1)NC(=O)c1cnccn1)B(O)O [bortezomib] was tested. Which “survival relative to PBS controls” value did it give?
**A.** significant increase

The compounds below were run on telomerase (assay: Inhibition of telomerase, biochemical (FlashPlate) assay). Settings: NPS linkages unless NP backbone stated.
Set-up: species or system human

**Q.** For “11-mer; truncation of GRN163 sequence: NPS oligonucleotide TAGGGTTAGAC (SEQ ID NO: 15) (DNA, all [NPS], methylation of C not given here)”, which IC50 is on record?
**A.** 0.85 ± 0.35 nM

**Q.** How did the IC50 turn out when “12-mer; truncation of GRN163 sequence: NPS oligonucleotide TAGGGTTAGACA (SEQ ID NO: 14) (DNA, all [NPS], methylation of C not given here)” was run?
**A.** 0.36 ± 0.2 nM

**Q.** “Alternative targeting 11-mer: NPS oligonucleotide GTTAGGGTTAG (SEQ ID NO: 16) (DNA dG[NPS]dT[NPS]dT[NPS]dA[NPS]dG[NPS]dG[NPS]dG[NPS]dT[NPS]dT[NPS]dA[NPS]dG)” was tested. Which IC50 did it give?
**A.** 0.51 ± 0.13 nM

**Q.** For “Alternative targeting 13-mer: NPS oligonucleotide CAGTTAGGGTTAG (SEQ ID NO: 13), complementary to nucleotides 46-58 of SEQ ID NO: 1 (DNA, all [NPS], methylation of C not given here)”, which IC50 is on record?
**A.** 0.049 ± 0.007 nM

**Q.** “Complement of GRN163 sequence: NPS oligonucleotide TTGTCTAACCCTA (SEQ ID NO: 24) (DNA, all [NPS], methylation of C not given here)” was tested. Which IC50 did it give?
**A.** 1000 ± 46 nM

**Q.** For “Duplex of GRN163 sequence: Duplex TAGGGTTAGACAA / ATCCCAATCTGTT (chemistry not fully specified; one strand is listed 3' to 5')”, which IC50 is on record?
**A.** 8.9 ± 3 nM

**Q.** For “Mismatch of GRN163 sequence with NP backbone: TAGGTGTAAGCAA with NP backbone (DNA, all [NP], methylation of C not given here)”, which IC50 is on record?
**A.** > 1000 nM

**Q.** “Mismatch of GRN163 sequence: NPS oligonucleotide TAGGTGTAAGCAA (SEQ ID NO: 23) (DNA, all [NPS], methylation of C not given here)” was tested. Which IC50 did it give?
**A.** 80 ± 31 nM

**Q.** “Mismatch of alternative targeting 11-mer: NPS oligonucleotide GTTGAGTGTAG (SEQ ID NO: 25) (DNA dG[NPS]dT[NPS]dT[NPS]dG[NPS]dA[NPS]dG[NPS]dT[NPS]dG[NPS]dT[NPS]dA[NPS]dG)” was tested. Which IC50 did it give?
**A.** 177 ± 93 nM

**Q.** Which IC50 does the source give for “Oligo-T 10-mer: Oligonucleotide TTTTTTTTTT (SEQ ID NO: 27)” here?
**A.** > 1000 nM

**Q.** “Telomere repeat unit: Oligonucleotide TTAGGG (SEQ ID NO: 26)” was tested. Which IC50 did it give?
**A.** > 1000 nM
